Literature values in publication PMC8154576, “GPR120/FFAR4 Pharmacology: Focus on Agonists in Type 2 Diabetes Mellitus Drug Discovery” (Journal of Medicinal Chemistry, 2021).
Like-named read-outs stand apart in the source and are kept apart here. Marks after values point to notes of the source that are not given here. Blank lines part the entries; values can stand above or below the compound they belong to.

Legend:
[1] = test system: pancreatic cancer PANC-1 cells; design: method as in PMID 26282200
[2] = test system: GPR120
[3] = test system: MCF-7 and MDA-MB-231 cell lines; design: method as in PMID 26821052
[4] = test system: mice; settings: for reduction of plasma glucose, ΔAUC in OGTT: C57BL/6DIO mice
[5] = test system: C57BL/6J mice; settings: for reduction of plasma glucose, ΔAUC in IPGTT: C57BL/6J mice
[6] = test system: hGPR120; settings: for EC50: read-out: hGPR120 EC50 (β-arr)
[7] = test system: hGPR120
[8] = test system: hGPR40
[9] = test system: hGPR120; settings: for EC50: Table 3, read-out: hGPR120 EC50 (IP1)
[10] = test system: mGPR120; design: method as in PMID 27815121
[11] = test system: mouse GPR120
[12] = test system: hGPR40; settings: for EC50: read-out: hGPR40 EC50 (Ca2+)
[13] = not given; remark: listed apart in the source
[14] = test system: Zucker diabetic fatty rats; design: method as in PMID 28148462; settings: 2 weeks, vehicle 192 mg/dL
[15] = test system: db/db mice; design: method as in PMID 28148462; settings: at the same concentrations (10 and 100 mg/kg), vehicle 276 mg/dL
[16] = test system: MDA-MB-231 cell line; design: method as in PMID 28456993
[17] = test system: DIO mice
[18] = design: method as in PMID 27570890
[19] = test system: STC-1 cells; settings: enteroendocrine STC-1 cell line
[20] = test system: muGPR40
[21] = test system: lean mice; design: method as in PMID 29206860; settings: pretreatment
[22] = test system: GPR120; design: method as in PMID 29206860; settings: cAMP assay in a CHO cell line; read-out: EC50 increase of cAMP levels
[23] = test system: MIN6 cell line; design: method as in PMID 24881566; settings: glucose 25 mM, compared to glibenclamide
[24] = design: method as in PMID 24881566
[25] = test system: human intestinal NCI-H716 cell line; design: method as in PMID 24881566
[26] = not given; remark: listed apart in the source
[27] = test system: rat’s anterior pituitary adenoma GH3 cells; design: method as in PMID 29843779
[28] = Table 2, read-out: hGPR120 EC50 (Ca2+)
[29] = Table 3, read-out: hGPR40 EC50 (IP1)

Compound: N#C[C@@H]1C[C@@H]2C[C@@H]2N1C(=O)[C@@H](N)C12CC3CC(CC(O)(C3)C1)C2 [saxagliptin]
reduction of plasma glucose, ΔAUC in OGTT ([4]; 1 mg/kg): 87%

Compound: OCCCc1c(F)cc(OCc2c(-c3ccc(Cl)cc3)csc2C(F)(F)F)cc1F [Compound 30]
outcome in IPGTT ([5]; GPR120 C57BL6 mice): positive outcomes | outcome in OGTT ([4]; GPR120 DIO mice): positive outcomes

Compound: Cc1ccc(S(=O)(=O)NC2c3ccccc3Oc3ccccc32)cc1 [Compound 5]
migration induced by 1 [16]: inhibited

Compound: O=C(O)CC1CCC2(CC1)CCN(c1cc(OC(F)(F)F)ccc1Cl)CC2 [Compound 26]
EC50 [8, 29]: > 10000 nM | whole blood glucose levels in OGTT ([4]; lean mice (wild-type/GPR120 KO), 30 and 100 mg/kg): dose-dependently reduced whole blood glucose levels | insulin resistance (HOMA-IR) ([17]; hyperinsulinemic-euglycemic DIO mouse clamp, days 14 and 28): reduction in insulin resistance | unbound clearance ([13]; rat, mouse, dog, and Rhesus): too high unbound clearance

Compound: CC(C)=CCC/C(C)=C/CC/C(C)=C/Cc1c(O)cc(C)c(C(=O)O)c1O [Compound 7, grifolic acid]
necrosis of GH3 cells [27]: dose- and time-dependently induced the necrosis

Compound: CCCCC/C=C\C/C=C\CCCCCCCC(=O)OC [1’s methyl ester]
GPR120 activity in vitro [2]: inactive in vitro

Now from value to compound, other results behind:

EC50 ([6]; Table 2): 60 nM | EC50 [7, 28]: 57 nM | pharmacokinetic (PK) profile: good pharmacokinetic (PK) profile
Compound: CCc1ccc(-c2noc(C(F)(F)F)c2COc2c(F)cc(CCC(=O)O)cc2F)cc1 [Compound 20]
reduction of plasma glucose, ΔAUC in IPGTT ([5]; 1 mg/kg): 30% | reduction of plasma glucose, ΔAUC in IPGTT ([5]; 3 mg/kg): 35% | reduction of plasma glucose, ΔAUC in IPGTT ([5]; 10 mg/kg): 54%

EC50 ([8]; read-out: IP1 EC50 GPR40): 1830 nM | percentage of receptor activation, hGPR120 [9]: 73% | EC50 [9]: 63 nM | percentage of receptor activation, mGPR120 [10]: 75% | PK properties (oral bioavailability, half-life, plasma clearance) (mouse): suitable PK properties
Compound: O=C(O)CCc1cc2cc(-c3cc(C(F)(F)F)ccc3F)ccc2o1 [Compound 23]
blood glucose levels in OGTT ([4]; wild-type and GPR120 KO mice, 30 and 100 mg/kg): acute reduction of blood glucose levels | selectivity over hGPR40 [9]: 29 fold

EC50 ([11]; read-out: EC50 GPR120 calcium assay in mouse): 193 nM | EC50 ([6]; Table 2): 69 nM | EC50 ([12]; Table 2): 3340 nM | EC50 [7, 28]: 80 nM | EC50 ([7]; low-expressing endogenous HT-29 cell line, read-out: EC50 hGPR120 calcium assay): 137 nM | clearance ([13]; mouse, rat, and dog): low clearance | half-life ([13]; mouse, rat, and dog): suitable half-life
Compound: O=C(O)CCc1cc(F)c(OCc2c(C(F)(F)F)ccn2-c2ccc(Cl)cc2)c(F)c1 [Compound 22]
GPR120 selectivity over GPR40, mouse ([11]; calcium assay): 18 fold | reduction in glucose levels in OGTT ([4]; diet-induced obese mice, 3 mg/kg, vs saxagliptin 1 mg/kg): comparable to saxagliptin | GPR120 selectivity over GPR40, human ([7]; calcium assay): 42 fold

EC50 ([12]; Table 1): 11800 nM | EC50 ([7]; Table 1, read-out: hGPR120 EC50 (Ca2+)): 299 nM | oral bioavailability (C57BL/6J mice): excellent oral bioavailability
Compound: COc1ccc(C(F)(F)F)cc1COc1ccc(CCC(=O)O)cc1C [Compound 19]
whole blood glucose levels ([14]; 10 mg/kg): 151 mg/dL | whole blood glucose levels ([14]; 100 mg/kg): 139 mg/dL | selectivity GPR120/GPR40, mouse [11]: 80 fold | glucose levels [15]: 106 mg/dL | selectivity GPR120/GPR40, human [7]: 40 fold

hGPR120 pEC50 (β-arr) ([6]; Table 4): 6.91 ^d | solubility in PBS [18]: relatively low solubility | hGPR120 pEC50 (Ca2+) ([7]; Table 4): 6.63 ^d
Compound: O=S1(=O)c2ccccc2CN1c1cc(F)cc(Oc2ccccn2)c1 [Compound 32]
glucose levels in OGTT ([4]; C57BL6 mice, 10 mg/kg orally, compared to vehicle control): decrease in glucose levels | decrease in body weight, chronic study ([17]; DIO wild-type mice): 7–9% | glucose levels, chronic study ([17]; DIO wild-type mice): reduced glucose levels | effect in chronic study ([17]; mice lacking GPR120): no effect | selectivity for GPR120 over GPR40 [2]: > 300 fold

EC50 [8, 29]: > 10000 nM | EC50 ([6]; Table 3): 84 nM | EC50 [9]: 220 nM
Compound: Fc1ccc(OC2CCC2)cc1-c1ccc2c(c1)CC[C@H](CCc1nnn[nH]1)O2 [Compound 25]
in vivo efficacy in OGTT [4]: good in vivo efficacy

EC50 [22]: 60 nM | EC50 ([7]; Table 4, read-out: hGPR120 EC50 (Ca2+)): 120 nM
Compound: C#Cc1cc(Oc2cccnc2)cc(N2Cc3ccccc3S2(=O)=O)c1 [Compound 33]
GLP-1 secretion [19]: boost GLP-1 secretion | activity against mGPR40 [20]: no activity | glucose levels in OGTT ([4]; lean male mice): reduce dose-dependently glucose levels | insulin concentration in IVGTT [21]: increase of insulin concentration

solubility in simulated intestinal fluid (FASSIF) [24]: weak solubility | hGPR40 pEC50 (Ca2+) ([12]; Table 4): <4.5 ^d | hGPR120 pEC50 (Ca2+) ([7]; Table 4): 6.3 ^d
Compound: COc1ccc(S(=O)(=O)Nc2c(C)cc(C)cc2C)cc1 [Compound 31]
insulin output in GSIS [23]: dose-dependently increased insulin output | GLP-1 secretion [25]: evoked GLP-1 secretion | selectivity for GPR120 over more than 65 targets, including GPR40, GPR43, GPR41 [26]: at least 100 fold

EC50 [8, 29]: > 10000 nM | EC50 ([6]; Table 3): 24 nM | EC50 [9]: 35 nM | half-life ([13]; several species): long half-life | oral bioavailability ([13]; several species): high oral bioavailability
Compound: COC1CC(Oc2cc(F)c(F)c(-c3ccc4c(c3)CCC(CCC(=O)O)O4)c2)C1 (centres unmarked) [Compound 24]
in vivo efficacy in OGTT [4]: good in vivo efficacy | glucose levels in OGTT ([4]; 3 and 10 mg/kg): dose-dependently reduced glucose levels

EC50 ([6]; Table 2): 143 nM | EC50 ([12]; Table 2): > 5000 nM | EC50 [7, 28]: 42 nM | pharmacokinetic profile [13]: good pharmacokinetic profile
Compound: O=C(O)CCc1cc(F)c(OCc2c(-c3ccc(Cl)cc3F)nsc2C(F)(F)F)c(F)c1 [Compound 21]
reduction of plasma glucose, ΔAUC in OGTT ([4]; 1 mg/kg): 61% | reduction of plasma glucose, ΔAUC in OGTT ([4]; 3 mg/kg): 83%

EC50 ([20]; FLIPR format, overexpressed mouse GPR40 in cell line, unit inferred): > 100000 nM | EC50 ([12]; Table 3): > 100000 nM | EC50 ([7]; Table 3, read-out: hGPR120 EC50 (Ca2+)): 740 nM | oral exposure [13]: moderate oral exposure
Compound: Cc1ccc(-n2nc(C)c3cnc(-c4ccc([C@@H]5C[C@H]5C(=O)O)cc4F)cc32)nc1 [Compound 28]
decrease in oral glucose excursion in OGTT ([4]; C57BL/6J mice): 45% | effect on glucose excursion in OGTT ([4]; GPR120 KO mice): no effect | reduction of glucose excursion in OGTT ([4]; wild-type mice): 47% | selectivity over 30 several targets [26]: good selectivity
